Molecular target: T1, LATS1 (Homo sapiens, UniProt O95835)
T1 construct: purchased Thermo Fisher Scientific (Life Technologies) SelectScreen
Assay: SelectScreen LanthaScreen
Type: binding
Details: read-out: % displacement
Procedure, shortened: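 NU5455 was profiled across the SelectScreen Broad panel of kinase activity and binding assays. Z'LYTE reactions such as CSF1R ran at apparent Km ATP, while the Adapta CAMK1 assay used ATP listed as 10. Values are given as percent.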

T1 sequence (O95835 whole entry): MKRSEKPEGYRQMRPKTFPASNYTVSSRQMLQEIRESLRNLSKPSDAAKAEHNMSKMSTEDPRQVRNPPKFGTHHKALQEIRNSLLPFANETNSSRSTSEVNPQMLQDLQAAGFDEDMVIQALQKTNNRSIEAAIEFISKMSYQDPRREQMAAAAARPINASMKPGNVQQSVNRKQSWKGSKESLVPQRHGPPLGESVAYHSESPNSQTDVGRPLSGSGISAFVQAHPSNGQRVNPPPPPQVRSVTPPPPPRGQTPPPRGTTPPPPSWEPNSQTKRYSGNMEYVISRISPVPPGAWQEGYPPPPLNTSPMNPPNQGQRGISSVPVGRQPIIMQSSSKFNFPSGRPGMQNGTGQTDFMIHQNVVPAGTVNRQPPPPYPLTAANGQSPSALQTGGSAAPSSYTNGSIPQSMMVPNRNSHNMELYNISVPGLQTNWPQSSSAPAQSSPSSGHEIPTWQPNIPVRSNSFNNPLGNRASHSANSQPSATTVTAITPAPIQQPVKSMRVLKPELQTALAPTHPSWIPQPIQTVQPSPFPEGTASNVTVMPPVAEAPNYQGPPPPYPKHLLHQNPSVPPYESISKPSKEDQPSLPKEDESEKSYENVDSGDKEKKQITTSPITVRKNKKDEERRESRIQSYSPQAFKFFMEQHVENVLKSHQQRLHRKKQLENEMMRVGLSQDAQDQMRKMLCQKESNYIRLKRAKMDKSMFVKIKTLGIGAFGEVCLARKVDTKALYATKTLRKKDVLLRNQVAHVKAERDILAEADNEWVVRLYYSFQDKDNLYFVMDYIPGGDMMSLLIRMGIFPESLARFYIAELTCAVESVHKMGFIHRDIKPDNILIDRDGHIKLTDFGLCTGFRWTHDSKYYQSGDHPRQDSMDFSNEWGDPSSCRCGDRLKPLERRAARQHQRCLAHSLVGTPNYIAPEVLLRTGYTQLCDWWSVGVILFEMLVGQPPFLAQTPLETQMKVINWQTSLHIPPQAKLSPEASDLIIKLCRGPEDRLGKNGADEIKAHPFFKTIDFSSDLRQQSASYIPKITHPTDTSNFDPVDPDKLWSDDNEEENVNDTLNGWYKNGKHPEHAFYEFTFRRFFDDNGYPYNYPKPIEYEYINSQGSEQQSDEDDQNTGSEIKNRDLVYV

Compound: CN(C(=O)CN1CCOCC1)c1ccc2sc3c(-c4cccc5c(=O)cc(N6CC7CCC(C6)O7)oc45)cccc3c2c1 [NU5455]
- inhibition at 1 µM: -1.3%

Reference: PMC6934184, “Selective DNA-PKcs inhibition extends the therapeutic index of localized radiotherapy and chemotherapy” (The Journal of Clinical Investigation, 2019)
